# Source: US10781224B2, “Bis(oxymethyl)phosphinic acid and biogenic metal salts thereof as regulators of plant growth and development” (priority 2016, dated 2020)
# Legend:
# Format in all cases: in vivo
# [1] = test system: corn (Krasnodar 385 MV variety); experiment: Corn seed treatment with BHMPA salts: germination energy and germination rate
# Description: (§1) Control—Soaking Seeds in Water;
# (§2) Experimental versions—soaking seeds in BHMPA solutions and solutions of BHMPA Ca, Mg, Na, Co, Mn, Cu, and Zn salts at 1·10^−6-1·10^−12% concentrations (doses). The studies were conducted in laboratory in Petri dishes; seed bed—two layers of filter paper. 50 seeds soaked in water (control) and in the solutions of the tested compounds (experimental) were placed into each dish. Wheat, corn, and rice seeds were exposed for one hour.
# (§3) Analysis was conducted according to the government standards GOST 12038-84 “Crop seeds. Technical conditions for determining the germination energy and germination rate”, GOST 12044-93 “Crop seeds. Methods for determining disease contamination.”
# (§4) Seed germination energy and rate were calculated in percent as an arithmetic mean of the four experimental results (germination energy on the 4th day, wheat germination on the 8th day, rice and corn germination—on the 7th day). Germination was determined based on the germinating power indicators (length of the roots and sprouts and their wet and dry mass per 100 shoots).
# (§5) The effect of pre-sowing seed treatment with the claimed BHMPA salts of biogenic metals was studied on winter wheat (Vershin variety), corn (Krasnodar 385 MV variety), and rice (Diamant variety).
# [2] = test system: rice (Diamant variety); experiment: Rice seed treatment with BHMPA salts: germination energy and germination rate
# Description: as §1, §2, §3, §4, §5
# [3] = test system: rice (Diamant variety); experiment: Rice seed treatment with BHMPA salts: germinating power
# Description: as §2, §4, §5
# The above data describe the seed viability only at the initial stage of germination, while the germination ability at the later stage of germination is defined by the initial germinating power. The method for the determination of the germinating power comprises measuring the height of the sprouts and primary roots, as well as the biomass and the dry mass thereof per 100 seedlings. [M. A. Kartuzova. Initial Germinating Power as Method of Biological Assessment of Seed Quality. Selection and Seed Farming, #2, 1953].
# [4] = comparative study vs Melaphen, 1·10^−7% solution
# [5] = rice seed treatment, solution 1 · 10^−9%
# [6] = seed treatment, concentration 1 · 10^−6%
# [7] = seed treatment, concentration 1 · 10^−7%
# [8] = seed treatment, concentration 1 · 10^−8%
# [9] = seed treatment, concentration 1 · 10^−9%
# [10] = seed treatment, concentration 1 · 10^−10%
# [11] = seed treatment, concentration 1 · 10^−11%
# [12] = seed treatment, concentration 1 · 10^−12%
# [13] = rice seed treatment, comparison with Melaphen (Table XXXIII), solution 1 · 10^−9%
# [14] = rice seeds, solution concentration 1 · 10^−6%
# [15] = rice seeds, solution concentration 1 · 10^−7%
# [16] = rice seeds, solution concentration 1 · 10^−8%
# [17] = rice seeds, solution concentration 1 · 10^−9%
# [18] = rice seeds, solution concentration 1 · 10^−10%
# [19] = rice seeds, solution concentration 1 · 10^−11%
# [20] = rice seeds, solution concentration 1 · 10^−12%
# [21] = rice, vs control, 1·10^−9% solution
smiles,measurement,setting,value
"O.O.O=P([O-])(CO)CO.O=P([O-])(CO)CO.[Co+2] [Co-salt, Cobalt BHMPA Salt]",Germination energy,[1]; 1·10^−6% solution,80.0%
same,Germination rate,[1]; 1·10^−6% solution,82.2%
same,Germination energy,[1]; 1·10^−7% solution,84.3%
same,Germination rate,[1]; 1·10^−7% solution,90.0%
same,Germination rate,"[1]; 1·10^−7% solution, listed as Co",86.7%
same,Germination energy,[1]; 1·10^−8% solution,82.0%
same,Germination rate,[1]; 1·10^−8% solution,84.7%
same,Germination energy,[1]; 1·10^−9% solution,80.7%
same,Germination rate,[1]; 1·10^−9% solution,83.0%
same,Germination energy,[1]; 1·10^−10% solution,79.2%
same,Germination rate,[1]; 1·10^−10% solution,81.7%
same,Germination energy,[1]; 1·10^−11% solution,78.0%
same,Germination rate,[1]; 1·10^−11% solution,80.8%
same,Germination energy,[1]; 1·10^−12% solution,76.8%
same,Germination rate,[1]; 1·10^−12% solution,79.2%
same,Germination energy,[1]; [4],87.0%
same,Germination rate,[1]; [4],96.7%
same,"Germination energy, %",[2]; [5],87.5%
same,"Germination rate, %",[2]; [5],94.5%
same,Germination energy,"[2]; rice, 1·10^−9% solution",86.3%
same,Germination rate,"[2]; rice, 1·10^−9% solution",93.7%
same,Germination energy,[2]; [6],80.7%
same,Germination rate,[2]; [6],84.0%
same,Germination energy,[2]; [7],83.0%
same,Germination rate,[2]; [7],87.0%
same,Germination energy,[2]; [8],84.0%
same,Germination rate,[2]; [8],90.3%
same,Germination energy,[2]; [9],86.3%
same,Germination rate,[2]; [9],93.7%
same,Germination energy,[2]; [10],85.7%
same,Germination rate,[2]; [10],91.3%
same,Germination energy,[2]; [11],84.0%
same,Germination rate,[2]; [11],88.0%
same,Germination energy,[2]; [12],81.3%
same,Germination rate,[2]; [12],85.3%
same,optimum concentration for treating rice seeds before sowing,[3]; rice,1·10^−9%
same,"Length, root",[3]; [13],6.4 cm
same,"Length, root, + % to control",[3]; [13],33%
same,"Length, sprout",[3]; [13],3.7 cm
same,"Length, sprout, + % to control",[3]; [13],42%
same,"Mass, dry, root",[3]; [13],0.25 g/100 plantlings
same,"Mass, dry, root, + % to control",[3]; [13],19%
same,"Mass, dry, sprout",[3]; [13],0.28 g/100 plantlings
same,"Mass, dry, sprout, + % to control",[3]; [13],12%
same,"Mass, wet, root",[3]; [13],1.37 g/100 plantlings
same,"Mass, wet, root, + % to control",[3]; [13],40%
same,"Mass, wet, sprout",[3]; [13],2.28 g/100 plantlings
same,"Mass, wet, sprout, + % to control",[3]; [13],51%
same,"Length, root",[3]; [14],5.1 cm
same,"Length, root, + % to control",[3]; [14],8.5%
same,"Length, sprout",[3]; [14],2.6 cm
same,"Length, sprout, + % to control",[3]; [14],13%
same,"Mass, dry, root",[3]; [14],0.19 g/100 plantlings
same,"Mass, dry, root, + % to control",[3]; [14],12%
same,"Mass, dry, sprout",[3]; [14],0.25 g/100 plantlings
same,"Mass, dry, sprout, + % to control",[3]; [14],25%
same,"Mass, wet, root",[3]; [14],0.89 g/100 plantlings
same,"Mass, wet, root, + % to control",[3]; [14],8.5%
same,"Mass, wet, sprout",[3]; [14],1.71 g/100 plantlings
same,"Mass, wet, sprout, + % to control",[3]; [14],15.5%
same,"Length, root",[3]; [15],5.4 cm
same,"Length, root, + % to control",[3]; [15],15%
same,"Length, sprout",[3]; [15],2.9 cm
same,"Length, sprout, + % to control",[3]; [15],26%
same,"Mass, dry, root",[3]; [15],0.22 g/100 plantlings
same,"Mass, dry, root, + % to control",[3]; [15],29%
same,"Mass, dry, sprout",[3]; [15],0.28 g/100 plantlings
same,"Mass, dry, sprout, + % to control",[3]; [15],40%
same,"Mass, wet, root",[3]; [15],0.94 g/100 plantlings
same,"Mass, wet, root, + % to control",[3]; [15],15%
same,"Mass, wet, sprout",[3]; [15],1.80 g/100 plantlings
same,"Mass, wet, sprout, + % to control",[3]; [15],22%
same,"Length, root",[3]; [16],5.7 cm
same,"Length, root, + % to control",[3]; [16],21%
same,"Length, sprout",[3]; [16],3.1 cm
same,"Length, sprout, + % to control",[3]; [16],35%
same,"Mass, dry, root",[3]; [16],0.24 g/100 plantlings
same,"Mass, dry, root, + % to control",[3]; [16],41%
same,"Mass, dry, sprout",[3]; [16],0.31 g/100 plantlings
same,"Mass, dry, sprout, + % to control",[3]; [16],55%
same,"Mass, wet, root",[3]; [16],1.07 g/100 plantlings
same,"Mass, wet, root, + % to control",[3]; [16],30%
same,"Mass, wet, sprout",[3]; [16],2.01 g/100 plantlings
same,"Mass, wet, sprout, + % to control",[3]; [16],36%
same,"Length, root",[3]; [17],6.2 cm
same,"Length, root, + % to control",[3]; [17],32%
same,"Length, sprout",[3]; [17],3.5 cm
same,"Length, sprout, + % to control",[3]; [17],52%
same,"Mass, dry, root",[3]; [17],0.26 g/100 plantlings
same,"Mass, dry, root, + % to control",[3]; [17],53%
same,"Mass, dry, sprout",[3]; [17],0.35 g/100 plantlings
same,"Mass, dry, sprout, + % to control",[3]; [17],75%
same,"Mass, wet, root",[3]; [17],1.15 g/100 plantlings
same,"Mass, wet, root, + % to control",[3]; [17],40%
same,"Mass, wet, sprout",[3]; [17],2.09 g/100 plantlings
same,"Mass, wet, sprout, + % to control",[3]; [17],41%
same,"Length, root",[3]; [18],5.8 cm
same,"Length, root, + % to control",[3]; [18],23%
same,"Length, sprout",[3]; [18],3.2 cm
same,"Length, sprout, + % to control",[3]; [18],39%
same,"Mass, dry, root",[3]; [18],0.23 g/100 plantlings
same,"Mass, dry, root, + % to control",[3]; [18],35%
same,"Mass, dry, sprout",[3]; [18],0.28 g/100 plantlings
same,"Mass, dry, sprout, + % to control",[3]; [18],40%
same,"Mass, wet, root",[3]; [18],1.03 g/100 plantlings
same,"Mass, wet, root, + % to control",[3]; [18],26%
same,"Mass, wet, sprout",[3]; [18],1.97 g/100 plantlings
same,"Mass, wet, sprout, + % to control",[3]; [18],33%
same,"Length, root",[3]; [19],5.6 cm
same,"Length, root, + % to control",[3]; [19],19%
same,"Length, sprout",[3]; [19],2.8 cm
same,"Length, sprout, + % to control",[3]; [19],22%
same,"Mass, dry, root",[3]; [19],0.20 g/100 plantlings
same,"Mass, dry, root, + % to control",[3]; [19],18%
same,"Mass, dry, sprout",[3]; [19],0.26 g/100 plantlings
same,"Mass, dry, sprout, + % to control",[3]; [19],30%
same,"Mass, wet, root",[3]; [19],0.94 g/100 plantlings
same,"Mass, wet, root, + % to control",[3]; [19],15%
same,"Mass, wet, sprout",[3]; [19],1.89 g/100 plantlings
same,"Mass, wet, sprout, + % to control",[3]; [19],28%
same,"Length, root",[3]; [20],5.2 cm
same,"Length, root, + % to control",[3]; [20],11%
same,"Length, sprout",[3]; [20],2.7 cm
same,"Length, sprout, + % to control",[3]; [20],17%
same,"Mass, dry, root",[3]; [20],0.19 g/100 plantlings
same,"Mass, dry, root, + % to control",[3]; [20],12%
same,"Mass, dry, sprout",[3]; [20],0.24 g/100 plantlings
same,"Mass, dry, sprout, + % to control",[3]; [20],20%
same,"Mass, wet, root",[3]; [20],0.88 g/100 plantlings
same,"Mass, wet, root, + % to control",[3]; [20],7%
same,"Mass, wet, sprout",[3]; [20],1.82 g/100 plantlings
same,"Mass, wet, sprout, + % to control",[3]; [20],23%
same,dry mass of the roots increased by,[3]; [21],53%
same,dry mass of the sprouts increased by,[3]; [21],75%
same,length of the root increased by,[3]; [21],32%
same,length of the sprout increased by,[3]; [21],52%
same,wet mass of the roots increased by,[3]; [21],40%
same,wet mass of the sprouts increased by,[3]; [21],41%
